Assay results: ChEMBL document CHEMBL5291721, “A preclinical secondary pharmacology resource illuminates target-adverse drug reaction associations of marketed drugs” (Nat Commun, 2023)

Tests used:
[1] = target: Vascular endothelial growth factor receptor 2 (Homo sapiens, UniProt P35968); type: functional
[2] = target: T1, Alpha-2A adrenergic receptor (Homo sapiens, UniProt P08913)
T1 sequence (P08913 whole entry): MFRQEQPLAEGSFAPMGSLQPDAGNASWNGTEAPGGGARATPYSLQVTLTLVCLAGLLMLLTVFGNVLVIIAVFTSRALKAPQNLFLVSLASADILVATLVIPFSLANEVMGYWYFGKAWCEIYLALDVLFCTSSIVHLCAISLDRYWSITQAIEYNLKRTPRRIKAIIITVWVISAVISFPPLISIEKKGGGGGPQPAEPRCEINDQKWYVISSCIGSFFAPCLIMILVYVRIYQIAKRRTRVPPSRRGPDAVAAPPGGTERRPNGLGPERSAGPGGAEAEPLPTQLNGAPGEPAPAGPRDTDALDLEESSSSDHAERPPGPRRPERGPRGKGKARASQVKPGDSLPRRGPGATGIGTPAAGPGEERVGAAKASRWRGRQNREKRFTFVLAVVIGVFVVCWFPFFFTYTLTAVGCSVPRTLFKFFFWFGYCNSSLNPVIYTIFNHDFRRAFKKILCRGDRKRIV

Progesterone receptor = target: T2, Progesterone receptor (Homo sapiens, UniProt P06401)
T2 sequence (P06401 whole entry): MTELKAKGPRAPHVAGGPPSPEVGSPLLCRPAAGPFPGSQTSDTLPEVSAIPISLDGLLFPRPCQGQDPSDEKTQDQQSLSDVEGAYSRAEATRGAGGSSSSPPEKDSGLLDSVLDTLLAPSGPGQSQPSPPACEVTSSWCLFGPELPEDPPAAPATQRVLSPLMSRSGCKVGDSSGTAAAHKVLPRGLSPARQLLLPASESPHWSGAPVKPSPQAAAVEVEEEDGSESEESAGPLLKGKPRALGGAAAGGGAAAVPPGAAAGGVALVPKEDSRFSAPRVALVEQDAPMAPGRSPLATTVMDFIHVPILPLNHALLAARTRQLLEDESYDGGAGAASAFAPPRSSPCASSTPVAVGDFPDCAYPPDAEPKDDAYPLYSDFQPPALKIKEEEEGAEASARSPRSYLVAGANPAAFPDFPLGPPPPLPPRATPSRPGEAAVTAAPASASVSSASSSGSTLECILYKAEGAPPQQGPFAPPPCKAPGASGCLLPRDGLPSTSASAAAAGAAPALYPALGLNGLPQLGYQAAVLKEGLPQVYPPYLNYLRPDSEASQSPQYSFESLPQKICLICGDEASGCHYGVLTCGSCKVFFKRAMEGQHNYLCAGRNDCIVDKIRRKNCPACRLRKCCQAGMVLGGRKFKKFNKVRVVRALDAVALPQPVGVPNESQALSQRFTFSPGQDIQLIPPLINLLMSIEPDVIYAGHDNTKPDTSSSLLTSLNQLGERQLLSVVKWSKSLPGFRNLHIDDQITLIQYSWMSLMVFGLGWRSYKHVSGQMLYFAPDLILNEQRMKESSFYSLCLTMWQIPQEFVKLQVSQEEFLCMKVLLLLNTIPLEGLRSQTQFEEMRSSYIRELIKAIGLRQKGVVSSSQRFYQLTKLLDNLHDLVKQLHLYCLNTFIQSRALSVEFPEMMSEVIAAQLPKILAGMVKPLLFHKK

[3] = target: T3, Muscarinic acetylcholine receptor M2 (Homo sapiens, UniProt P08172)
T3 sequence (P08172 whole entry): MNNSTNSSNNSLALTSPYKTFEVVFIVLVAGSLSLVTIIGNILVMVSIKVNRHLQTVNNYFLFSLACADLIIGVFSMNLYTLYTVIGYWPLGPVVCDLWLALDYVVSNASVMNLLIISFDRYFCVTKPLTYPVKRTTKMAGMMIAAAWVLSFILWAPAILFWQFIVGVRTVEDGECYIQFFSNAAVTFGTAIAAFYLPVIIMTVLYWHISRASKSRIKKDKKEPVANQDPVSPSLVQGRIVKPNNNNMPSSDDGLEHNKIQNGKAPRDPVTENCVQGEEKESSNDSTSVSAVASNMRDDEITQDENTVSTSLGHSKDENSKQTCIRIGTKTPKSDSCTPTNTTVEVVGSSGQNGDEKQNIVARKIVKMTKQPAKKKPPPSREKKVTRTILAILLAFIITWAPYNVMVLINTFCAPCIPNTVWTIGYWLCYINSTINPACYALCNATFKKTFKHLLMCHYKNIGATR

[4] = target: Prostaglandin G/H synthase 1 (Homo sapiens, UniProt P23219); type: functional
Chain of Prostaglandin G/H synthase 1 (P23219 whole entry): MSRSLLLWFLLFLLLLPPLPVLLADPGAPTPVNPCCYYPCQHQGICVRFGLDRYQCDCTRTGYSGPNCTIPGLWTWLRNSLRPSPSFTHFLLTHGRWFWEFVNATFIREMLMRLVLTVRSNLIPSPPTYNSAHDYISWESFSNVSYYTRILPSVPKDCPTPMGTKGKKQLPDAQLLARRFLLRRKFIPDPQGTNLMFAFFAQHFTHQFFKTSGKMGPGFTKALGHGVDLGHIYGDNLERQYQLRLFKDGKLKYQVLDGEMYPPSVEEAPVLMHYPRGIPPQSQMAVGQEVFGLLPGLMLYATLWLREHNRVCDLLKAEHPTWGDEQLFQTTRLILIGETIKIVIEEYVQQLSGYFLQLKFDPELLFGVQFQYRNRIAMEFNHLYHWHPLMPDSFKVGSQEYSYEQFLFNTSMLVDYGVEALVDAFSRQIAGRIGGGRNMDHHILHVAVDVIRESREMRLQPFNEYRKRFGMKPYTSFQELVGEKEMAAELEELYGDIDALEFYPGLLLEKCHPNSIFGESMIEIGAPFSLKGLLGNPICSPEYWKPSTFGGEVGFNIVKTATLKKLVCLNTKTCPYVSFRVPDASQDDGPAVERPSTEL

[5] = target: T4, 5-hydroxytryptamine receptor 1A (Homo sapiens, UniProt P08908)
T4 sequence (P08908 whole entry): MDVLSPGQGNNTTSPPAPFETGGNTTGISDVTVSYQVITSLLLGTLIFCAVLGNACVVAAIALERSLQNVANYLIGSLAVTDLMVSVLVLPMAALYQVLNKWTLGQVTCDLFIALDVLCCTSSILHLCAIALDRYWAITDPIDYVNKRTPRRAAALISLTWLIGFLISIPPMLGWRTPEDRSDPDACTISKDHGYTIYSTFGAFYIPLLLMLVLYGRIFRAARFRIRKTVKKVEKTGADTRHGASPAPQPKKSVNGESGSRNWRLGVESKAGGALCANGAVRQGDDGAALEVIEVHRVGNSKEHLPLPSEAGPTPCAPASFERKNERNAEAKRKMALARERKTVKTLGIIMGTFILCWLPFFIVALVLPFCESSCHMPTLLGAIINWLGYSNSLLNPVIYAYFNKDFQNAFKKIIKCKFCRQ

[6] = target: Sodium-dependent noradrenaline transporter (Homo sapiens, UniProt P23975)
Chain of Sodium-dependent noradrenaline transporter (P23975 whole entry): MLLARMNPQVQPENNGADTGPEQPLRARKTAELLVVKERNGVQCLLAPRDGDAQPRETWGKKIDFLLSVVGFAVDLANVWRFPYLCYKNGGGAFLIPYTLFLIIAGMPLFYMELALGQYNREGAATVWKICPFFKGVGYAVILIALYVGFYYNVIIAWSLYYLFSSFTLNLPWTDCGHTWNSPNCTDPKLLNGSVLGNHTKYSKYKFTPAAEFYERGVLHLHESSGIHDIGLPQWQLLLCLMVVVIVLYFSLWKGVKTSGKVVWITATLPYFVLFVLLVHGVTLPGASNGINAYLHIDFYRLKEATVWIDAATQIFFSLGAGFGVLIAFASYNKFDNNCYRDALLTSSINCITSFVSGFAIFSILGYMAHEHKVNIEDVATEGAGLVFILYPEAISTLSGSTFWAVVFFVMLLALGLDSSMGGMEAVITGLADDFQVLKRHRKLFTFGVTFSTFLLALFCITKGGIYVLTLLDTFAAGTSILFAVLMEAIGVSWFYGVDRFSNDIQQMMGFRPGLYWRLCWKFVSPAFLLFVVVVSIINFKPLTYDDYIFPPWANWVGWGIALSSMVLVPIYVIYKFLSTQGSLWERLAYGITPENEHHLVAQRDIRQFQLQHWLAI

[7] = target: Sodium-dependent dopamine transporter (Homo sapiens, UniProt Q01959)
Chain of Sodium-dependent dopamine transporter (Q01959 whole entry): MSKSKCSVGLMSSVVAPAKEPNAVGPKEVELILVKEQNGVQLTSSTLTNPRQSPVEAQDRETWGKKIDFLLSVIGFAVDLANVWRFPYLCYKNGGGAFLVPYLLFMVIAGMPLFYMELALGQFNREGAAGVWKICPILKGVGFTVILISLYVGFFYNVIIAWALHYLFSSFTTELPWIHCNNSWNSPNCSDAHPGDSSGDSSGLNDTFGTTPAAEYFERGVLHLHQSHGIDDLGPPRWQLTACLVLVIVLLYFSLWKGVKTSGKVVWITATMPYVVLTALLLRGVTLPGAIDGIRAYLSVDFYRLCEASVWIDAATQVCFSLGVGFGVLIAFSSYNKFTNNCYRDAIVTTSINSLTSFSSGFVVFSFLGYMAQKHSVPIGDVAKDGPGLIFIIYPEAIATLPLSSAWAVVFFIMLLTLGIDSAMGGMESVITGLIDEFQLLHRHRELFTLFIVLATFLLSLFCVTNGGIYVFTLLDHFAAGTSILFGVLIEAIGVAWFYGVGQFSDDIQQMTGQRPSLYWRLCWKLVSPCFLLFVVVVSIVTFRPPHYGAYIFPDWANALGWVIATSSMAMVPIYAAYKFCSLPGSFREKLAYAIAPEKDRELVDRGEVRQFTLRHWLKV

B2 bradykinin receptor = target: T5, B2 bradykinin receptor (Homo sapiens, UniProt P30411)
T5 sequence (P30411 whole entry): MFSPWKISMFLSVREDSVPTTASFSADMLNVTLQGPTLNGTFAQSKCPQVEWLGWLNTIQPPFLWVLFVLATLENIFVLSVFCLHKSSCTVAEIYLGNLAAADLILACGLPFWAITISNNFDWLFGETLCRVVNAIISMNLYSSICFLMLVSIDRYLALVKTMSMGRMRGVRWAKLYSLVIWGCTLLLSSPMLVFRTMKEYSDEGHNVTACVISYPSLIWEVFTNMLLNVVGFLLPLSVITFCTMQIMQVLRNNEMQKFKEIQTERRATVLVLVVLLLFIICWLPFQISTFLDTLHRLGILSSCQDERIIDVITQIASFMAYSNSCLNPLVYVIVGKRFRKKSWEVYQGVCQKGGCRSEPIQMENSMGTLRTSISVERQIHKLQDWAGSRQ
Also: assay procedure not described here.

Chain of Vascular endothelial growth factor receptor 2 (P35968 whole entry): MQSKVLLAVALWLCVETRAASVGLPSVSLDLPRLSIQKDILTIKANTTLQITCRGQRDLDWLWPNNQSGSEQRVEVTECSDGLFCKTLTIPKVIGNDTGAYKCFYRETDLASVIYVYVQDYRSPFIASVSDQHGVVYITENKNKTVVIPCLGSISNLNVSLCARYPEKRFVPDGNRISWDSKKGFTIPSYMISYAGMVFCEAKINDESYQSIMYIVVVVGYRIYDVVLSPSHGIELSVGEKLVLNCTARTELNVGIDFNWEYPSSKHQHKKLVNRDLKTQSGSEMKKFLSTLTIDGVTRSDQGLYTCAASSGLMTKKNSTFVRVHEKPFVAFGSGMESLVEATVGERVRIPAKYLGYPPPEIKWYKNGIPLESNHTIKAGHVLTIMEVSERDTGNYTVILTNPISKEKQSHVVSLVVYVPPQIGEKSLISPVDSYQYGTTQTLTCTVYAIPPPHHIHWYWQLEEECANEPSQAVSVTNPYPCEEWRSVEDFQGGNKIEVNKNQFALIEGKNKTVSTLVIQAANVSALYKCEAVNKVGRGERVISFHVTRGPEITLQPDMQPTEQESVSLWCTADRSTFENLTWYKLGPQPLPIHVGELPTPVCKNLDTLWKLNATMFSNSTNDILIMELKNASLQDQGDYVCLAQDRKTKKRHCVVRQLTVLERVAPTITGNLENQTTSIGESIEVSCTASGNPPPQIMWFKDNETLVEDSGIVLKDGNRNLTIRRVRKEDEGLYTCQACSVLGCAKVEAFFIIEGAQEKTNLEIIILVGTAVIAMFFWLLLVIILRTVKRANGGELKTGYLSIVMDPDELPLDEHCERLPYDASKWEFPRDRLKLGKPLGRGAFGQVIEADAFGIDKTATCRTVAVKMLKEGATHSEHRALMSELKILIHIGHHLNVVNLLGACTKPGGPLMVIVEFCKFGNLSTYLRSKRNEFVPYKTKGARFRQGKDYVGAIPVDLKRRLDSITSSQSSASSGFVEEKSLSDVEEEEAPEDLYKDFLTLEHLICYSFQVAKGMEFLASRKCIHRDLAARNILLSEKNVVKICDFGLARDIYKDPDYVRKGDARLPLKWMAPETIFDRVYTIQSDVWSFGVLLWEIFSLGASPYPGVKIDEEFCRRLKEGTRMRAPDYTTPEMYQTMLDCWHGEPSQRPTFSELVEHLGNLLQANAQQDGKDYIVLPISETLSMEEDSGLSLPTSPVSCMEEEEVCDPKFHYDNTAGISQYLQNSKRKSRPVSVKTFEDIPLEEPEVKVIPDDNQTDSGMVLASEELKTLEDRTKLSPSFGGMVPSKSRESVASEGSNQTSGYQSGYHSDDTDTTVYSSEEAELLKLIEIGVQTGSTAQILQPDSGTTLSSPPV

Row | Structure (SMILES) | AC50 [1] [µM] | AC50 [2] [µM] | AC50 (Progesterone receptor) [µM] | AC50 [3] [µM] | AC50 [4] [µM] | AC50 [5] [µM] | AC50 [6] [µM] | AC50 [7] [µM] | AC50 (B2 bradykinin receptor) [µM]
1 | NCC1(CC(=O)O)CCCCC1 [GABAPENTIN] | > 30 | > 30 | > 30 | > 30 | > 30 | > 30 | > 30 | > 30 | > 30
2 | CCOC(=O)[C@H](CCc1ccccc1)N[C@@H](C)C(=O)N1Cc2ccccc2C[C@H]1C(=O)O | > 30 | > 30 | > 30 | > 30 | > 30 | > 30 | > 30 | > 30 | > 30
3 | Cc1c(C)c2c(c(C)c1O)CCC(C)(COc1ccc(CC3SC(=O)NC3=O)cc1)O2 (stereo unspecified) [TROGLITAZONE] | > 30 | 10.3 | 3.55 | 17.8 | > 30 | 25.7 | 4.11 | 8.75 | > 30
4 | CCCCCCO[C@@H](C)c1cccc(-c2csc(NC(=O)c3cc(Cl)c(/C=C(\C)C(=O)O)c(Cl)c3)n2)c1OC [LUSUTROMBOPAG] | > 30 | > 30 | 9.34 | > 30 | 6.42 | 6.96 | > 30 | > 10 | 
5 | NC(=O)C1(N2CCCCC2)CCN(CCCN2c3ccccc3CCc3ccccc32)CC1 [CARPIPRAMINE] | > 30 | 0.208 | > 30 | 4.39 | > 30 | 2.83 | 11.7 | 2.94 | 
6 | C=CCOc1ccc(CC(=O)O)cc1Cl [ALCLOFENAC] | > 30 | > 30 | > 30 | > 30 | > 3 | > 30 | > 30 | > 30 | 
7 | OC[C@H]1NC[C@H](O)[C@@H](O)[C@H]1O | > 30 | > 30 | > 30 | > 30 | > 30 | > 30 | > 30 | > 30 | 
8 | Cc1ccc(C(C)C)c(O)c1 [THYMOL] | > 30 | > 30 | > 30 | > 30 | > 3 | > 30 | 23.3 | > 30 | 
9 | Cc1cc(C)cc(OCC2CNC(=O)O2)c1 (stereo unspecified) [METAXALONE] | > 30 | > 30 | > 30 | > 30 | > 30 | > 30 | 10.2 | > 30 | 
10 | O=P1(N(CCCl)CCCl)NCCCO1 (stereo unspecified) [CYCLOPHOSPHAMIDE ANHYDROUS] | > 30 | > 30 | > 30 | > 30 | > 30 | > 30 | > 30 | > 30 | 
11 | CN1CCN(C(c2ccccc2)c2ccc(Cl)cc2)CC1 (stereo unspecified) [CHLORCYCLIZINE] | > 30 | 3.1 | > 30 | 0.505 | > 30 | 13.9 | 21.2 | 0.225 | 
